Results reported in ChEMBL document CHEMBL3046076, “3D-QSAR CoMFA and CoMSIA studies on a set of diverse 1a-adrenergic receptor antagonists” (Med Chem Res, 2011).

Biological target: T1, Alpha-1A adrenergic receptor (Homo sapiens, UniProt P35348)
T1 sequence (P35348 whole entry): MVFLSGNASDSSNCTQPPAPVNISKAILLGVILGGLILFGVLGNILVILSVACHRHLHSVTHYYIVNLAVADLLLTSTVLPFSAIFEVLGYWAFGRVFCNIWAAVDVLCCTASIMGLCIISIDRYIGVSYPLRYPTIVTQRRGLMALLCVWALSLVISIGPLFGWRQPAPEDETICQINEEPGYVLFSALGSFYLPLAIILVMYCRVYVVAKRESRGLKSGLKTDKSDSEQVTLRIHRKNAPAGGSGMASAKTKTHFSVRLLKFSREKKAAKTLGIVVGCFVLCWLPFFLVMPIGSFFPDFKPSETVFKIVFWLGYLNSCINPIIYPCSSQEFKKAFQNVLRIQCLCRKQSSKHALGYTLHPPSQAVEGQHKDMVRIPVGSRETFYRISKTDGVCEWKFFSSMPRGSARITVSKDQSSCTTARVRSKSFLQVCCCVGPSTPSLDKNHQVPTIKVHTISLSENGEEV
Assay: Binding affinity to adrenergic alpha1A receptor (unknown origin)
Settings: read-out: Ki

SMILES | Ki [nM]
C[N+](C)(CCOc1ccccc1)CC1COC(c2ccccc2)(c2ccccc2)O1 (stereo unspecified) | 24.5
CN(CCOc1ccccc1)CC1COC(c2ccccc2)(c2ccccc2)O1 (stereo unspecified) | 33.9
c1ccc(OCCNC2COCC(c3ccccc3)(c3ccccc3)O2)cc1 (stereo unspecified) | 170
COc1cccc(OC)c1OCCNC1COCC(c2ccccc2)(c2ccccc2)O1 (stereo unspecified) | 339
COc1cccc(OC)c1OCCN[C@H]1C[C@@H](c2ccccc2)c2ccccc2O1 | 0.05
COc1cccc(OC)c1OCCN[C@H]1C[C@H](c2ccccc2)c2ccccc2S1 | 2.34
COc1cccc(OC)c1OCCN[C@H]1C[C@@H](c2ccccc2)c2ccccc2S1 | 0.08
COc1cccc(OC)c1OCCNC[C@@H]1C(=O)c2ccccc2C[C@H]1c1ccccc1 | 8.7
COc1ccccc1N1CCN(CC2CO[C@H](c3ccccc3)O2)CC1 (stereo partly specified) | 28.8
COc1cc2nc3c(c(N)c2cc1OC)CCC(CNC(=O)c1ccoc1)C3 (stereo unspecified) | 95.5
COc1cc2nc3c(c(N)c2cc1OC)CC(CNC(=O)c1ccoc1)C3 (stereo unspecified) | 158
COc1cc2nc3c(c(N)c2cc1OC)CCC(CNCOc1c(OC)cccc1OC)C3 (stereo unspecified) | 1700
COc1cccc(OC)c1OCCN[C@H]1CO[C@H](c2ccccc2)CO1 | 513
c1ccc(OCCN[C@H]2COC[C@H](c3ccccc3)O2)cc1 | 407
COc1cccc(OC)c1OCCN[C@H]1COC[C@H](c2ccccc2)O1 | 468
c1ccc(OCCNC2COC(c3ccccc3)(c3ccccc3)CO2)cc1 (stereo unspecified) | 224
COc1ccccc1OCCNC1COC(c2ccccc2)(c2ccccc2)CO1 (stereo unspecified) | 74.1
c1ccc(OCCN[C@H]2CO[C@H](c3ccccc3)CO2)cc1 | 537

The next lines start with the values.

Ki [nM] | SMILES
36.3 | COc1ccccc1N1CCN(CC2CO[C@@H](c3cccc4ccccc34)O2)CC1 (stereo partly specified)
7.94 | COc1ccccc1N1CCN(CC2CO[C@H](c3cccc4ccccc34)O2)CC1 (stereo partly specified)
91.2 | COc1ccccc1N1CCN(CC2COC3(CCCCC3)O2)CC1 (stereo unspecified)
86.2 | O=C1CC2(CCCC2)CC(=O)N1CCN1CCN(c2cc(F)ccc2Cl)CC1
2680 | O=C1CC2(CCCC2)CC(=O)N1CCN1CCN(c2ccccc2)CC1
236 | O=C1CC2(CCCC2)CC(=O)N1CCN1CCCN(c2ccccc2Cl)CC1
171 | N#Cc1ccccc1N1CCN(CCN2C(=O)CC3(CCCC3)CC2=O)CC1
43.1 | O=C1CC2(C=CN1CCN1CCN(c3ccccc3Cl)CC1)CCCC2
70 | O=C1CC2(CCCC2)CCN1CCN1CCN(c2ccccc2Cl)CC1
149 | CC(CN1CCN(c2cc(Cl)ccc2Cl)CC1)N1C(=O)CC2(CCCC2)CC1=O (stereo unspecified)
95.4 | Cc1ccc(C)c(N2CCN(CCN3C(=O)CC4(CCCC4)CC3=O)CC2)c1
54.6 | O=C1CC2(CCCC2)C(=O)N1CCN1CCN(c2cc(Cl)ccc2Cl)CC1
23.4 | COc1ccccc1N1CCN(CCN2C=CC3(CCCC3)CC2=O)CC1
403 | N#Cc1ccc(Cl)cc1N1CCN(CCN2C(=O)CC3(CCCC3)CC2=O)CC1
100 | Cc1ccc(Cl)c(N2CCN(CCN3C(=O)CC4(CCCC4)CC3=O)CC2)c1
1.45 | O=C1CC2(CCCC2)CC(=O)N1CCCCN1CCN(c2cc(Cl)ccc2Cl)CC1
2.83 | CC(C)Oc1ccccc1N1CCN(CCN2C(=O)CC3(CCCC3)CC2=O)CC1
5.88 | COc1ccccc1N1CCN(CC(O)COc2cccc3ccccc23)CC1 (stereo unspecified) [NAFTOPIDIL]

Same assay, conditions: read-out: pKi (converted)

SMILES | Ki [nM]
COc1cccc(OC)c1OCCN[C@H]1C[C@@H](c2ccccc2)c2ccccc2S1 | 0.0891
COc1cc2nc3c(c(N)c2cc1OC)CCC(CNC(=O)c1ccoc1)C3 (stereo unspecified) | 2570

Other lines, results leading:

Ki [nM] | SMILES
43.7 | O=C1CC2(C=CN1CCN1CCN(c3ccccc3Cl)CC1)CCCC2
151 | CC(CN1CCN(c2cc(Cl)ccc2Cl)CC1)N1C(=O)CC2(CCCC2)CC1=O (stereo unspecified)
407 | N#Cc1ccc(Cl)cc1N1CCN(CCN2C(=O)CC3(CCCC3)CC2=O)CC1
